Source: ChEMBL document CHEMBL2176967, “Radiofluorinated derivatives of 2-(phosphonomethyl)pentanedioic acid as inhibitors of prostate specific membrane antigen (PSMA) for the imaging of prostate cancer” (J Med Chem, 2012)
pIC50, pKi: −log10 of the molar value.

Legend:
[1] = biological target: T1, Glutamate carboxypeptidase 2 (Homo sapiens, UniProt Q04609); assay: biochemical
Description: Inhibition of NAALADase activity in human LNCaP cell membranes assessed as inhibition of [3H]NAG conversion to [3H]glutamate after 30 mins by liquid scintillation counting

[2] = biological target: T1, Glutamate carboxypeptidase 2; assay: Binding affinity to NAALADase
[3] = Drug level in human LNCaP cells xenografted Balb/c mouse gut at 10 MBq, iv measured after 45 to 130 mins by PET/CT scanning; format: ADME, organism-based; conditions: in vivo
Kidney [4] = assay: Drug level in human LNCaP cells xenografted Balb/c mouse kidney at 10 MBq, iv measured after 45 to 130 mins by PET/CT scanning in presence of unlabelled compound; format: ADME, organism-based; conditions: in vivo
[5] = Drug level in human LNCaP cells xenografted Balb/c mouse tumor at 10 MBq, iv measured after 45 to 130 mins by PET/CT scanning in presence of unlabelled compound; format: ADME, organism-based, Neoplasm; conditions: in vivo
Liver = assay: Drug level in human LNCaP cells xenografted Balb/c mouse liver at 10 MBq, iv measured after 45 to 130 mins by PET/CT scanning; format: ADME, organism-based; conditions: in vivo
Urinary bladder = assay: Drug level in human LNCaP cells xenografted Balb/c mouse bladder at 10 MBq, iv measured after 45 to 130 mins by PET/CT scanning; format: ADME, organism-based; conditions: in vivo
[6] = Drug level in human LNCaP cells xenografted Balb/c mouse tumor at 10 MBq, iv measured after 45 to 130 mins by PET/CT scanning; format: ADME, organism-based, Neoplasm; conditions: in vivo
Kidney [7] = assay: Drug level in human LNCaP cells xenografted Balb/c mouse kidney at 10 MBq, iv measured after 45 to 130 mins by PET/CT scanning; format: ADME, organism-based; conditions: in vivo
Bone = assay: Drug level in human LNCaP cells xenografted Balb/c mouse bone at 10 MBq, iv measured after 45 to 130 mins by PET/CT scanning; format: ADME, organism-based, Bone element; conditions: in vivo

T1 sequence (Q04609 whole entry): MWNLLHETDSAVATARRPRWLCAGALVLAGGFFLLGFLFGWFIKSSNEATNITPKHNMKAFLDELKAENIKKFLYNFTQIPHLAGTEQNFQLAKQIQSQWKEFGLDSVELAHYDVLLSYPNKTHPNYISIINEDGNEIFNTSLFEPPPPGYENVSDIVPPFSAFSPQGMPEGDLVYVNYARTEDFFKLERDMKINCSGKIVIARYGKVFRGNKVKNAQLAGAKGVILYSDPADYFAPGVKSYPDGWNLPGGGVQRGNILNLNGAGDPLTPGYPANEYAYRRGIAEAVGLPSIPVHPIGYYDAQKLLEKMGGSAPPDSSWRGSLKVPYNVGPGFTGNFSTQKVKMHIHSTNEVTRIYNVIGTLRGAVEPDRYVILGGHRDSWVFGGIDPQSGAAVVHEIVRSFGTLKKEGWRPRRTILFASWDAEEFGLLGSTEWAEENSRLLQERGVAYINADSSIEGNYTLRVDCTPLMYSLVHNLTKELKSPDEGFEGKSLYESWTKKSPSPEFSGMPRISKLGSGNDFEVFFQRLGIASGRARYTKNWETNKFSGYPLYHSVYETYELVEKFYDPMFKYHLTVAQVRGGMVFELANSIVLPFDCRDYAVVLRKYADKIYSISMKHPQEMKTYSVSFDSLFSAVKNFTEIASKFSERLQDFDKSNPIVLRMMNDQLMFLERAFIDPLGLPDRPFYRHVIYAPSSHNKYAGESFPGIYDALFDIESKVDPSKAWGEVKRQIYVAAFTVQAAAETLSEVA

Row | Structure (SMILES) | pIC50 [1] | pKi [1] | pKi [2] | also measured
1 | O=C(O)[C@@H](C[C@H](F)C(=O)O)CP(=O)(O)O | 7.25 | 7.66 | – | –
2 | O=C(O)[C@@H](C[C@@H](F)C(=O)O)CP(=O)(O)O | 7.05 | 7.44 | – | –
3 | C[C@@H](C[C@H](NC(=O)N[C@@H](C[C@H](C)C(=O)O)C(=O)O)C(=O)O)C(=O)O | – | – | 5.96 | –
4 | C[C@H](C[C@H](NC(=O)N[C@@H](C[C@@H](C)C(=O)O)C(=O)O)C(=O)O)C(=O)O | – | – | 5.89 | –
5 | O=C(O)CC[C@H](NC(=O)N[C@@H](CCC(=O)O)C(=O)O)C(=O)O | – | – | 8.10 | –
6 | O=C(O)[C@H](C[C@H](F)C(=O)O)CP(=O)(O)O | 8.51 | 8.85 | – | –
7 | O=C(O)C([18F])CC(CP(=O)(O)O)C(=O)O (racemic) | – | – | – | Drug uptake [3]: Not Active; Drug uptake (Kidney [4]): Not Active; Drug uptake [5]: Not Active; Drug uptake (Liver): Not Active; Drug uptake (Urinary bladder): Active; Drug uptake [6]: Active; Drug uptake (Kidney [7]): Active; Drug uptake (Bone): Active
8 | O=C(O)C(F)CC(CP(=O)(O)O)C(=O)O (racemic) | 8.17 | 8.59 | – | –
9 | O=C(O)[C@H](C[C@@H](F)C(=O)O)CP(=O)(O)O | 8.09 | 8.51 | – | –
10 | O=C(O)CCCC(CP(=O)(O)O)C(=O)O (stereo not drawn) | – | – | – | pIC50 [2]: 6.73
11 | O=C(N[C@@H](C[C@@H](Cc1ccccc1)C(=O)O)C(=O)O)N[C@@H](C[C@@H](Cc1ccccc1)C(=O)O)C(=O)O | – | – | 6.41 | –
